Assay results: patent US8163756B2 (priority 2004, dated 2012)

Key:
Type in all cases: biochemical
KDR kinase = KDR kinase (Homo sapiens, UniProt P35968, DEL940-989/E990V); test: KDR kinase assay K2 (as K1, 2.1 nM enzyme, 2 h pre-incubation, 1.0 mM ATP); details: Method K2; read-out: KDR Data (IC50)
Description: (§1) IC50 values were calculated from a series of percent inhibition values determined at a range of inhibitor concentrations using software routines as implemented in the GraphPad Prism software package.

Abl kinase = target: T1, Abl kinase (Homo sapiens, UniProt P00519); test: Abl kinase assay A1 (pyruvate kinase/lactate dehydrogenase coupled, spectrophotometric); details: Method A1; read-out: Abl Data (IC50)
T1 sequence (P00519 229-512): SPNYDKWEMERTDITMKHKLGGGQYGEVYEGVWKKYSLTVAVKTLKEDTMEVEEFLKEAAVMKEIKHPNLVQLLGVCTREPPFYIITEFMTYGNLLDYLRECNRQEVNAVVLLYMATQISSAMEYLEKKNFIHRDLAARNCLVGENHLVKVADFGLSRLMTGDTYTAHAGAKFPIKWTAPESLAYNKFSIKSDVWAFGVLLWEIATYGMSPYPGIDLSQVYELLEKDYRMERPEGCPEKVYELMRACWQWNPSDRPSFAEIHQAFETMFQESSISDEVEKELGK
Description: as §1

B-Raf(V599E) kinase = B-Raf(V599E) kinase (Homo sapiens, UniProt P15056, V600E); test: B-Raf(V599E) kinase assay B1 (construct 1, MEK1 substrate, coupled spectrophotometric)
Description: The test compounds were incubated with the reaction mixtureat 30° C. for 2 h. […] The reaction rate was calculated using the […] time frame. […] IC50 values were calculated from a series of percent inhibition values determined at a range of inhibitor concentrations using software routines as implemented in the GraphPad Prism software package.

[1] = target: phosphorylated p-38-alpha kinase (Homo sapiens, UniProt Q16539); test: P-38 alpha kinase assay P1 (coupled spectrophotometric, 2 h pre-incubation); details: method P1 (2 h pre-incubation); read-out: P-38 Data
Sequence of phosphorylated p-38-alpha kinase (Q16539 1-360 isoform Q16539-2): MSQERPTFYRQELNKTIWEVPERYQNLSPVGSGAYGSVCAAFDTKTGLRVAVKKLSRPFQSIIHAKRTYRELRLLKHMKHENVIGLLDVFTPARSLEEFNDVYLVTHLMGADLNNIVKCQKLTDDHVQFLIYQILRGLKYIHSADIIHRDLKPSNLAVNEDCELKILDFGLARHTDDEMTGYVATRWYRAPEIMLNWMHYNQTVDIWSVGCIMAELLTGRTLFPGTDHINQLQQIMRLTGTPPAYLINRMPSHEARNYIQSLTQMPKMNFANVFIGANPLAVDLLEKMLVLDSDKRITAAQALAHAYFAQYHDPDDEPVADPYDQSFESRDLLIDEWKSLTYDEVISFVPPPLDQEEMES

Sequence of B-Raf(V599E) kinase (P15056 with tags, fused parts or gaps V600E): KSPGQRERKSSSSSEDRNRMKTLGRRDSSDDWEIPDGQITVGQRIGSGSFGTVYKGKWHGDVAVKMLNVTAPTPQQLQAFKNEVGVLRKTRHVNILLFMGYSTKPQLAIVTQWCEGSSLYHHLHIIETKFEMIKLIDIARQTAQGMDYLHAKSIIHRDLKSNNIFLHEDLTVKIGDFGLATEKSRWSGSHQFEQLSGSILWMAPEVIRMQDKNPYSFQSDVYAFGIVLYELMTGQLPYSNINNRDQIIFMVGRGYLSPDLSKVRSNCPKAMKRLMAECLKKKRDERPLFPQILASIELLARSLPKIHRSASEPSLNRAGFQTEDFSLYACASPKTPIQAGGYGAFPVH
Sequence of KDR kinase (P35968 with tags, fused parts or gaps DEL940-989/E990V): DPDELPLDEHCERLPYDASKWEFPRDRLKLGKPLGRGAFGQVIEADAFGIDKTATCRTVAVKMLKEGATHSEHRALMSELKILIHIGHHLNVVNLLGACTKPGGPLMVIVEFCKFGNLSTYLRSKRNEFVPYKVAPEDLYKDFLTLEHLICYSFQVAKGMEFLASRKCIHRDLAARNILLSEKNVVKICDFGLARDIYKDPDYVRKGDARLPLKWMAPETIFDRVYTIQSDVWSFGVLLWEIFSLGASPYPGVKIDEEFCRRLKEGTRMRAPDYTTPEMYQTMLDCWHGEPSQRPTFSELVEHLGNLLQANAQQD

Structure (SMILES)	IC50 (KDR kinase) [nM]	IC50 (Abl kinase) [nM]	IC50 (B-Raf(V599E) kinase) [nM]	IC50 [1] [nM]
CC(C)(C)c1cc(NC(=O)Nc2cccc(F)c2F)n(-c2cccc(C#N)c2)n1 [Example 4, 1-[3-t-butyl-1-(3-cyan-phenyl)-1H-pyrazol-5-yl]-3-(2,3-difluorophenyl)urea]	310	2900		
CC(C)(C)c1cc(NC(=O)Nc2cc(F)c(F)c(F)c2)n(-c2cccc(C#N)c2)n1 [Example 12, 1-(3-t-butyl-1-(3-cyanophenyl)-1H-pyrazol-5-yl)-3-(3,4,5-trifluorophenyl)urea]	280	390		
CC(C)(C)c1cc(NC(=O)Nc2ccc(Cl)cc2)n(-c2cnc3ccccc3c2)n1 [Example 56, 1-(3-t-butyl-1-(quinolin-3-yl)-1H-pyrazol-5-yl)-3-(4-chlorophenyl)urea]	3100	4800		
CC(C)(C)c1cc(NC(=O)Nc2cc(F)ccc2F)n(-c2cccc(C#N)c2)n1 [Example 213, 1-(3-t-butyl-1-(3-cyanophenyl)-1H-pyrazol-5-yl)-3-(2,5-difluorophenyl)urea]	210		12	67
COc1cccc(-n2nc(C(C)(C)C)cc2NC(=O)Nc2ccc(Cl)cc2Cl)c1 [Example 233, 1-(3-t-butyl-1-(3-methoxyphenyl)-1H-pyrazol-5-yl)-3-(2,4-dichlorophenyl)urea]	410		28	50
COc1ccc(-n2nc(C(C)(C)C)cc2NC(=O)Nc2ccccc2F)cc1 [Example 237, 1-[3-t-butyl-1-(4-methoxyphenyl)-1H-pyrazol-5-yl]-3-(2-fluorophenyl)urea]	4900		59	580
COc1ccc(-n2nc(C(C)(C)C)cc2NC(=O)Nc2cccc(Cl)c2)cc1 [Example 240, 1-[3-t-butyl-1-(4-methoxyphenyl)-1H-pyrazol-5-yl]-3-(3-chlorophenyl)urea]	3700		50	470
CC(C(N)=O)c1cccc(-n2nc(C(C)(C)C)cc2NC(=O)Nc2cccc(Cl)c2Cl)c1 (stereo not shown) [Example 249, 1-(1-(3-(1-amino-1oxopropan-2-yl)phenyl)-3-t-butyl-1H-pyrazol-5-yl)-3-(2,3-dichlorophenyl)urea]	590		4.5	11
CC(C)(C)c1cc(NC(=O)Nc2cccc(Cl)c2Cl)n(-c2cccc(CC(=O)N3CCC(C(=O)O)CC3)c2)n1 [Example 345, 1-[2-(3-{3-t-butyl-5-[3-(2,3-dichlorophenyl)ureido]-1H-pyrazol-1-yl}phenyl)acetyl]piperidine-4-carboxylic acid]	2900			19
CC(C)(C)c1cc(NC(=O)Nc2cccc3ccccc23)n(-c2ccc3c(c2)CNCC3)n1 [Example 349]	4100			30
CC(C)(C)c1cc(NC(=O)Nc2cccc(Cl)c2Cl)n(-c2cccc(CC(=O)N3CCCC(C(=O)O)C3)c2)n1 (stereo not shown) [Example 398, 1-[2-(3-{3-t-butyl-5-[3-(2,3-dichlorophenyl)-ureido]-1H-pyrazol-1-yl}-phenyl)acetyl]piperidine-3-carboxylic acid]	2700		12	26
CC(C)(C)c1cc(NC(=O)Nc2cccc(Cl)c2Cl)n(-c2cccc(CC(=O)N3CCC[C@@H]3C(=O)O)c2)n1 [Example 400, (2R)-1-[2-(3-{3-t-butyl-5-[3-(2,3-dichlorophenyl)ureido]-1H-pyrazol-1-yl}phenyl)acetyl]pyrrolidine-2-carboxylic acid]	3700		19	46
CC(C)(C)c1cc(NC(=O)Nc2cccc(Cl)c2Cl)n(-c2ccc(CC(=O)N3CCC(C(=O)O)CC3)cc2)n1 [Example 498, 1-[2-(4-{3-t-butyl-5-[3-(2,3-dichlorophenyl)ureido]-1H-pyrazol-1-yl}-phenyl)acetyl]piperidine-4-carboxylic acid]	1700		52	9
